Measured values: US20060019320A1, “Wnt mediated erbb signalling, compositions and uses related thereto” (priority 2002, published 2006)

Key:
ERK1/2 = test: phospho-ERK1/2 immunoblot (MAPK activity) in HC11 cells; assay type: cell-based, mouse; details: for ability of the Wnt proteins to stimulate ERK1/2 activity: C-HC11 pretreated 1 hr with inhibitor, then Wnt CM for 10 minutes
Text: The MAPK and PI3K pathways are major signaling cascades downstream of activated ErbB receptors (Olayioye et al., 2000). Antisera specific for the active, phosphorylated forms of ERK1/2 and PKB, the major kinases on the respective pathways, were used to probe for their activity. 50 micrograms of WCL were immunoblotted essentially as described above with the exception that a phospho-ERK1/2 antibody (commercially available, New England Biolabs) or a phosphoPKB antibody was used. Membranes were stripped and reprobed for ERK1/2 (anti-p44/42 ERK, New England Biolabs).
Briefly, conditioned media (CM) from Wnt-HC11 cells prepared as described in Example 1 was tested for its effect on ErbB1 and MAPK activity, essentially as described above. Treatment of C-HC11 cells for 10 min with Wnt1- and Wnt5a-CM stimulated phospho-ERK1/2 levels 5-6-fold, whereas CM from C-HC11 cells had no effect.
To rule out the potential involvement of ErbB1 ligands in mediating the effects of Wnt-containing CM, we used secreted Frizzled-related protein-1 (sFRP-1), which binds Wnt preventing it from binding Fz (Uren et al., 2000). CM from human embryonic kidney (HEK293) cells stably expressing the sFRP1 expression vector or control HEK 293 cells was premixed 1 hr with Wnt-containing CM (1:1) before adding to C-HC11 cultures for 10 min. Simultaneous addition of CM from sFRP1-producing 293 cells with Wnt-containing CM prevented Wnt1 and Wnt5a from increasing phospho-ERK1/2 levels, showing that sFRP1 blocks Wnt signalling through Fz to ErbB1. As a control, the cells were also treated for 10 minutes with EGF in the presence of sFRP1.
To test for a role of metalloproteinases in Wnt-expressing HC11 cells, two metalloproteinase inhibitors were used, namely phenanthroline (Calbiochem), a metal ion chelator, or CGS27023A, an enzymatic inhibitor (Wang et al., 1999). Cells were treated for 1 hour with phenathroline, CGS27023A, (both at 50μM) or DMSO carrier. ErbB1 was immunoprecipitated from 500 micrograms WCL and immunoblotted with a phosphotyrosine specific antibody, essentially as described above. Membranes were stripped and reprobed for ErbB1. ERK1/2 was probed from 50 micrograms of WCL, immunoblotted with a phospho-ERK1/2 antibody, essentially as described above. Membranes were stripped and reprobed for ERK1/2.
The metalloproteinase inhibitors were next tested in the presence of Wnt-containing CM. C-HC11 cultures were pretreated 1 hr with metalloproteinase inhibitors before treatment with CM from C- or Wnt-HC11 cells for 10 minutes. Phospho-ERK1/2 levels were determined as above. Phenanthroline and CGS 27023A each blocked the ability of the Wnt proteins to stimulate ERK1/2 activity in C-HC11 cells. Similar results were obtained with HC11 cells constitutively expressing the Wnt proteins. Thus, Wnt-mediated activation of ErbB1 and ERK is dependent on a metalloproteinase activity.

cyclin D1 = test: Cyclin D1 immunoblot in HC11 cells; assay type: cell-based, mouse; details: Wnt1- and Wnt5a-HC11 cells treated 6 hr
Experimental: Briefly, WCL was prepared from HC11, Wnt1- and Wnt5a-expressing HC11 cells and 50 μg immunoblotted essentially as described above using commercially available antibodies against cyclin D1 (NovaCastra) or cyclin D2 (SantaCruz). Both Wnt1- and Wnt5a-HC11 cells express higher levels of cyclin D1, in comparison to HC11 cells. In addition, Wnt1-HC11 cells but not C- or Wnt5a-HC11 cells express cyclin D2.
C-HC11 cells were also treated 6 hrs with CM from Wnt-HC11 cells. WCL were prepared and 50 μg was immunoblotted for Cyclin D1 or Cyclin D2. Similar to the results with the Wnt-HC11 cell lines, both Wnts (CM) stimulated Cyclin D1 expression, while only Wnt1 enhanced cyclin D2 levels.
To assess the contribution of Wnt-transactivated ErbB1 on cyclin D1 and D2 expression, C- and Wnt-HC11 cells were treated 6 hr with PKI166 or CGS27023A or EGF. […] In contrast, the ErbB1 inhibitor had no effect on cyclin D2 levels. […] Thus, cyclin D1 and cyclin D2 are differentially controlled. Both Wnt1 and Wnt5a transactivate ErbB1, which results in increased expression of cyclin D1; in contrast cyclinD2 is only elevated in Wnt1 expressing cells and this is independent of ErbB1 activity.

ErbB1 = biological target: T1, ErbB1 (Mus musculus, UniProt Q01279); test: ErbB1 immunoprecipitation and phosphotyrosine immunoblot in HC11 cells; assay type: cell-based; details: Wnt-HC11 cells, 5 microM for 1 hr
T1 construct: endogenous in cells; host or cells: HC11 mammary cells (C-HC11, Wnt1-HC11, Wnt5a-HC11)
T1 sequence (Q01279 25-1210): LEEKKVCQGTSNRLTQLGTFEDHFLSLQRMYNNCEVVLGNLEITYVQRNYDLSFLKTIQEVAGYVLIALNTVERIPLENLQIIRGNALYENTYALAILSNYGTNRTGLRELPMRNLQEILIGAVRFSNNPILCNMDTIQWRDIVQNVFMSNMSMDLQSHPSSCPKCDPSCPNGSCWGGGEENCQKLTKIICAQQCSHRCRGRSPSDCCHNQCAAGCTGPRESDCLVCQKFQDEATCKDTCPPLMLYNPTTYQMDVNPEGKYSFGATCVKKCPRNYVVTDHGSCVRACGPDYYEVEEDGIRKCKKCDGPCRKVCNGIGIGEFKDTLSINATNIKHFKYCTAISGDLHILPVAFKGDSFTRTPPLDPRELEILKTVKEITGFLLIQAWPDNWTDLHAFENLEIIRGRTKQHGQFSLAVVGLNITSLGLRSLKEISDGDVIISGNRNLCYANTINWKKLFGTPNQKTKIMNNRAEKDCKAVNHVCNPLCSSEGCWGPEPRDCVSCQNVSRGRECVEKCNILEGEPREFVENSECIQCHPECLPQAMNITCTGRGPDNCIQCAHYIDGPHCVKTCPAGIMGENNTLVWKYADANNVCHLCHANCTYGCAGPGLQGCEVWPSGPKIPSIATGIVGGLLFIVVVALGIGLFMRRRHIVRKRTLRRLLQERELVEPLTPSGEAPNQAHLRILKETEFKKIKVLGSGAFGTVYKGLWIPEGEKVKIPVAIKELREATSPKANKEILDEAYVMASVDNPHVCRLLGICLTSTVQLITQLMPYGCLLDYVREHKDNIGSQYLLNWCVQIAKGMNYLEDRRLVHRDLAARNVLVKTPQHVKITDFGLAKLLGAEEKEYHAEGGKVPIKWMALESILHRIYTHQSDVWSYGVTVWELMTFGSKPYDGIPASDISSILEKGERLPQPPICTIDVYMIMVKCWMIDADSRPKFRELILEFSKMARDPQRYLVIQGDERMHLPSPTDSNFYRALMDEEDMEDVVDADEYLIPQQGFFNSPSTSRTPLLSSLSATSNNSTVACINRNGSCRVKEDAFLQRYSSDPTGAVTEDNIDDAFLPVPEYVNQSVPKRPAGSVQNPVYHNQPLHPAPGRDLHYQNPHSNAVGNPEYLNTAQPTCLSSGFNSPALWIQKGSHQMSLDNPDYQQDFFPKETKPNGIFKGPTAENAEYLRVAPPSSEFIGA
Experimental: ErbB1 is transactivated by many classes of membrane proteins (Carpenter, 1999; Gschwind et al., 2001). However, Wnt/VFz-mediated activation of ErbB1 has not been reported previously. Since ErbB1 tyrosine phosphorylation is an essential step in ErbB1 activation, we examined whether Wnt can activate ErbB1, by immunoprecipitating the receptor form Wnt/HC11 cells and performing a Westem analysis with phosphotyrosine specific antiserum. For these experiments HC11 cells were grown over night in medium without EGF. As a control for ErbB1 activation, C-HC 11 and Wnt-HC11 cells were treated for 10 minutes with 100 ng/ml EGF. An ErbB1 selective kinase inhibitor PKI166 (Traxler et al., 2001) was also used in some experiments. For this, the cells were pretreated 1 hr with 5 microM PKI 166, or left untreated, before preparing WCLs, essentially as described in Example 1.
ErbB1 was immunoprecipitated from 500 micrograms WCL and immunoblotted with a phosphotyrosine specific antibody (anti-phosphotyrosine AG10, Upstate Biotechnology) essentially as described previously (Lane et al., 2000). Membranes were stripped by placing them in 2% SDS, 62.5 mM Tris pH 6.8, 100 mM beta-mercaptoethanol at 60° C. for 30 min. Stripped membranes were reprobed for ErbB1 using a commercially available antibody (antibody 1005,Santa Cruz Biotechnology). […]

cyclin D2 = test: Cyclin D2 immunoblot in HC11 cells; assay type: cell-based, mouse; details: Wnt-HC11 cells treated 6 hr
Experimental: Briefly, WCL was prepared from HC11, Wnt1- and Wnt5a-expressing HC11 cells and 50 μg immunoblotted essentially as described above using commercially available antibodies against cyclin D1 (NovaCastra) or cyclin D2 (SantaCruz). Both Wnt1- and Wnt5a-HC11 cells express higher levels of cyclin D1, in comparison to HC11 cells. In addition, Wnt1-HC11 cells but not C- or Wnt5a-HC11 cells express cyclin D2. C-HC11 cells were also treated 6 hrs with CM from Wnt-HC11 cells. WCL were prepared and 50 μg was immunoblotted for Cyclin D1 or Cyclin D2. Similar to the results with the Wnt-HC11 cell lines, both Wnts (CM) stimulated Cyclin D1 expression, while only Wnt1 enhanced cyclin D2 levels. To assess the contribution of Wnt-transactivated ErbB1 on cyclin D1 and D2 expression, C- and Wnt-HC11 cells were treated 6 hr with PKI166 or CGS27023A or EGF. […] In contrast, the ErbB1 inhibitor had no effect on cyclin D2 levels. […] Thus, cyclin D1 and cyclin D2 are differentially controlled. Both Wnt1 and Wnt5a transactivate ErbB1, which results in increased expression of cyclin D1; in contrast cyclinD2 is only elevated in Wnt1 expressing cells and this is independent of ErbB1 activity.

decrease of ErbB1's phosphotyrosine level (ErbB1) | Structure (SMILES) | ability of the Wnt proteins to stimulate ERK1/2 activity (ERK1/2) | cyclin D1 level (cyclin D1) | ability of Wnt-containing CM to stimulate phospho-ERK1/2 levels (ERK1/2; C-HC11 cells pre-treated for 1 hour with inhibitor) | EGF induction of MAPK activity (ERK1/2; C-HC11 cells, pretreatment with inhibitor) | constitutive level of phospho-ERK1/2 (ERK1/2; Wnt-expressing HC11 cells) | cyclin D2 levels (cyclin D2)
– | COc1ccc(S(=O)(=O)N(Cc2cccnc2)[C@@H](C(=O)NO)C(C)C)cc1 [CGS27023A] | blocked | decreased expression | – | – | – | –
approximately 50% | C[C@@H](Nc1ncnc2[nH]c(-c3ccc(O)cc3)cc12)c1ccccc1 [PKI166] | – | reduced cyclin D1 to the control level | blocked | prevented | reduced the constitutive level of phospho-ERK1/2 to basal | no effect
– | c1cnc2c(c1)ccc1cccnc12 [Phenanthroline, phenanthroline] | blocked | – | – | – | – | –
